Reference: ChEMBL document CHEMBL1155187, “Amplification of the inhibitory activity of miglitol by monofluorination” (Bioorg Med Chem Lett, 2009)

Molecular target: Oligo-1,6-glucosidase IMA1 (Saccharomyces cerevisiae S288c, UniProt P53051)
Assay: Inhibition of baker's yeast alpha-glucosidase by 4-nitrophenolate-based assay

Chain of Oligo-1,6-glucosidase IMA1 (P53051 whole entry): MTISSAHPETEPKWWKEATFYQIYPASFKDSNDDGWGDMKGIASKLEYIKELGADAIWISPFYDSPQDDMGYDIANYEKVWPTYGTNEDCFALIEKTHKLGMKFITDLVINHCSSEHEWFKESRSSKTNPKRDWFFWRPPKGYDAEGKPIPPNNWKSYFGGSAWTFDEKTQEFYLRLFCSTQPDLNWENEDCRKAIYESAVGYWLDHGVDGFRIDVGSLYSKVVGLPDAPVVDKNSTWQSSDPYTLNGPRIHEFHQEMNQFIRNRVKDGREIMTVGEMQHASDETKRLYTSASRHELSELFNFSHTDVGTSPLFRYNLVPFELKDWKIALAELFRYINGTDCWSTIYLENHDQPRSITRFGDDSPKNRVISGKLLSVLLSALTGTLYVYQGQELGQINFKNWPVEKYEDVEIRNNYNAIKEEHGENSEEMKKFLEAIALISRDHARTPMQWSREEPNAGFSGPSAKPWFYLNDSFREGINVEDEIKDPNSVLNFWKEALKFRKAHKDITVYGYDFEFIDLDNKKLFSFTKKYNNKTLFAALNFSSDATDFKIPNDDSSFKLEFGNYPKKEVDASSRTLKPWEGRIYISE

| IC50 [mM] | SMILES |
| --- | --- |
| 2.1 | OCCN1C[C@@H](F)[C@@H](O)[C@H](O)[C@H]1CO |
| 9.9 | OCCN1C[C@H](O)[C@@H](O)[C@H](O)[C@H]1CO [MIGLITOL] |
